Values joined by “and” are separate entries in the source; they are usually repeats but may differ in a detail not shown here. Equal values may be shown once. Read-outs that look alike come from different tables or passages of the source. Where a SMILES comes first, the peptide text is derived from it. The star is where a group is joined. X1 = O=C(NCCCCN*)c1ccc(-c2n[nH]c3ccccc23)cc1; X2 = O=C(NCCCN*)c1ccc(-c2n[nH]c3ccccc23)cc1
What was measured:
[1] = test system: infarct size in rat hearts; test: I/R MI rat model, 30 minutes ischemia and 24 hours reperfusion; type: in vivo; conditions: 40 mg/kg 3-aminobenzamide; p=0.048
Protocol: The in vivo efficacy of SR-3306 in anesthetized rats after 30 minutes ischemia and 24 hours reperfusion was evaluated.

[2] = biological target: JNK3 (Homo sapiens, UniProt P53779); test: JNK3 enzyme activity assay; type: biochemical; conditions: 2-3 determinations; SP600125 from 10 measurements; * n = 2-4
Sequence of JNK3 (P53779 1-422 isoform P53779-2): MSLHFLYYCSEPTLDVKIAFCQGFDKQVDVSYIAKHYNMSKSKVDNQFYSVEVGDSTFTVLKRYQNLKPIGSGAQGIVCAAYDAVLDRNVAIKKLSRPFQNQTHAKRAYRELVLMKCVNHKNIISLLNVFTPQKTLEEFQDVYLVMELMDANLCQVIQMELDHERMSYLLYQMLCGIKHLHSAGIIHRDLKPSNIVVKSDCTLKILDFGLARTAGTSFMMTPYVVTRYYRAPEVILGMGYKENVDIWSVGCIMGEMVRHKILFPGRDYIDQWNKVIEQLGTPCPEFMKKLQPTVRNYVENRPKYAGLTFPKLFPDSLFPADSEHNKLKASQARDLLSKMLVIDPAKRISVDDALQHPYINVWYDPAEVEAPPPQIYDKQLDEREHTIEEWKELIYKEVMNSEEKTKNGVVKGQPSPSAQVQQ

[3] = biological target: T1, JNK3 39-422 (Homo sapiens, UniProt P53779); test: JIP FP displacement assay (TAMRA-JIP-11-mer peptide, fluorescence polarization); type: binding; conditions: 2-3 determinations; * n = 2-4
T1 construct: with JNK3 39-422 and measuring fluorescence polarization (FP) changes
T1 sequence (P53779 39-422 isoform P53779-2): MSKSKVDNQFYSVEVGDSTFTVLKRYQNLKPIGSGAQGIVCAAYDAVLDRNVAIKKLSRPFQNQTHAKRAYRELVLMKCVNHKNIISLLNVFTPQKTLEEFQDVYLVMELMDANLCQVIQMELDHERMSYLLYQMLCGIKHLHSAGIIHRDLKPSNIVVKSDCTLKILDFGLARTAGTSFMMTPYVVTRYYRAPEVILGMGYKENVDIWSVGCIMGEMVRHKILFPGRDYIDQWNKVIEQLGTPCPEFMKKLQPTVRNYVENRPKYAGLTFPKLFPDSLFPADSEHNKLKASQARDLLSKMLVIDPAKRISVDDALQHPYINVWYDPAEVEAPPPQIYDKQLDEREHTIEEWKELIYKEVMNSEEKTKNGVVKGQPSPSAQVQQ
Excerpt: The biochemical assay for JIP displacement is centered on utilizing a TAMRA-JIP-11-mer peptide (TAMRA-RPKRPTTLNLF) with JNK3 39-422 and measuring fluorescence polarization (FP) changes in the presence and absence of small molecule inhibitors. This assay has been established in 96-well and 384-well format in our labs. Unlabeled JIP-peptide (RPKRPTTLNLF, SEQ ID:1) and compound 2 were used as positive controls.

[4] = biological target: JNK1 (Homo sapiens, UniProt P45983); test: JNK1 enzyme assay; type: biochemical; conditions: 2-3 determinations; SP600125 from 10 measurements
Sequence of JNK1 (P45983 whole entry): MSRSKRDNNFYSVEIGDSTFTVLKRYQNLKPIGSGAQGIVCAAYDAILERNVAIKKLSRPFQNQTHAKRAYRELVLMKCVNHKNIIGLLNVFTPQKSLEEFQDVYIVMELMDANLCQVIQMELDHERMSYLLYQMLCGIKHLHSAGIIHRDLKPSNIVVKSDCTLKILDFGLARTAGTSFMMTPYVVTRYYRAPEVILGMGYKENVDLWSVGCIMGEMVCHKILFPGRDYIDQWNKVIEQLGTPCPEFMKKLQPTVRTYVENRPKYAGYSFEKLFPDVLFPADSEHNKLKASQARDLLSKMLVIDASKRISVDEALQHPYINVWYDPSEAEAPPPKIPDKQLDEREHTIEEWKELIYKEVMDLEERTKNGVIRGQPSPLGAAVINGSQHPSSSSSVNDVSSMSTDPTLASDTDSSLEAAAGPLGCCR

[5] = test system: c-jun phosphorylation in H9C2 cardiomyocyte cells; test: In-cell Western detection of c-Jun phosphorylation; type: cell-based; conditions: for IC50: n = 4, read-out: Cell-based p-c-Jun inhibition (IC50)
Protocol: The IC50 was calculated to be 2.8±0.5 μM. Standard error is given.
(§1) To analyze the cell activity of compound 6 and its analogs an In-cell Western detection assay was set up where phosphorylation of c-Jun was monitored. […] This finding was corroborated by Western blot analysis in H9C2 and N2a cells (FIG. 7). Considering the reasonably high biochemical kinase selectivity (coupled with its low μM cell potency), compound 6 is believed to be a good in vitro probe molecule for studying the biology and the signal pathways related to JNK/LRRK2 (and mutant LRRK2s).
Table 2, above, presents the inhibition of c-Jun phosphorylation in H9c2 cells for six JNK bidentate inhibitors, compounds 5, 6, 9, 10, 12, and 13.

[6] = test system: SHSY5Y cells transfected with LRRK2:G2019S; test: LRRK2:G2019S-induced decrease in mitochondrial membrane potential; type: cell-based, human; conditions: 10 μM compound
Excerpt: (§2) FIGS. 5A, 5B, and 5C, depict the results of assays to determine the protection of LRRK2:G2019S-induced mitochondrial dysfunction and cell death by compound 6. Significance between LRRK2:WT and LRRK2:G2019S are indicated by a single asterisk (p<0.05) (*), while differences between cells expressing LRRK2:G2019S and compound 6 treated cells expressing LRRK2:G2019S are indicated by a double asterisk (p<0.05) (**). Error bars denote standard deviation.
(§3) We next tested if compound 6 was potent in cell-based functional assays that measured reactive oxygen species (ROS) generation, mitochondrial membrane potential (MMP), and cell viability. We had previously shown that JNK inhibition had significant effects on all of these mitochondrial functional parameters in HeLa cells. FIG. 5 presents the effects that compound 6 had on all of these measures in the human dopaminergic SHSY5Y cell line. […] Finally, LRRK2:G2019S-induced cell loss was measured showing ˜50% less viable cells (FIG. 5C). In the presence of 10 μM compound 6, cell viability returned to >95% (p<0.05).

[7] = test system: SHSY5Y cells transfected with LRRK2:G2019S; test: LRRK2:G2019S-induced ROS generation (Mitosox fluorescence); type: cell-based, human; conditions: 1 μM or 10 μM compound; p<0.05
Excerpt: as §2, §3

[8] = biological target: JNK3α1 (Homo sapiens, UniProt P53779); test: ATP competitive binding / mechanism of inhibition studies; type: biochemical; conditions: eight concentrations of compound; p<0.05
Sequence of JNK3α1 (P53779 1-422 isoform P53779-2): as the sequence (P53779 1-422 isoform P53779-2) above
Excerpt: (A) Non-linear least squares fitting of the data using an equation for competitive inhibition at eight concentrations of compound 6. (B) Double reciprocal plots and linear regression of the data shown in A.
The detection method in the JNK3 enzyme assay allows for the detection of a compound that inhibits by a variety of mechanisms including: substrate-site binding, allosteric site binding, and ATP-competitive binding. […] However, if the inhibition of kinase activity by 6 was only through substrate site binding, its IC50 value in JNK3 activity assay should be similar to that in JIP displacement assay. […] One possible interaction besides JIP site binding was ATP hinge binding because the head indazole moiety is a well-known hinge binder.

[9] = biological target: CLK1 (Homo sapiens, UniProt P49759); test: Enzyme inhibition profiling, panel of 21 kinases; type: biochemical
Sequence of CLK1 (P49759 whole entry): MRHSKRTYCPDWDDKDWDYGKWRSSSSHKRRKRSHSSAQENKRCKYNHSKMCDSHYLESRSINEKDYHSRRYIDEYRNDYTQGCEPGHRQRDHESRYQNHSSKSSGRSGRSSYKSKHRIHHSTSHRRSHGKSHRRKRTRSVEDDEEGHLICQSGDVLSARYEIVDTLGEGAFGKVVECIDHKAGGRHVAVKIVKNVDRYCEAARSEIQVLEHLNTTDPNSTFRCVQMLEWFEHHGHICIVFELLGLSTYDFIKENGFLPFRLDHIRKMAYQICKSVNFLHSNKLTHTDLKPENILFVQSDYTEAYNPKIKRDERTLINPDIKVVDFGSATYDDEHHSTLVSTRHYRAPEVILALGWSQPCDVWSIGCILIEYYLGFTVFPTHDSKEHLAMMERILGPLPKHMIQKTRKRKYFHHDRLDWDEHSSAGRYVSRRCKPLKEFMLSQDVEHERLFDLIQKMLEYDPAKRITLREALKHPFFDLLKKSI

[10] = biological target: LRRK2-G2019S (Homo sapiens, UniProt Q5S007, G2019S); test: LRRK2-G2019S enzyme assay (titration); type: biochemical
Sequence of LRRK2-G2019S (Q5S007 whole entry G2019S): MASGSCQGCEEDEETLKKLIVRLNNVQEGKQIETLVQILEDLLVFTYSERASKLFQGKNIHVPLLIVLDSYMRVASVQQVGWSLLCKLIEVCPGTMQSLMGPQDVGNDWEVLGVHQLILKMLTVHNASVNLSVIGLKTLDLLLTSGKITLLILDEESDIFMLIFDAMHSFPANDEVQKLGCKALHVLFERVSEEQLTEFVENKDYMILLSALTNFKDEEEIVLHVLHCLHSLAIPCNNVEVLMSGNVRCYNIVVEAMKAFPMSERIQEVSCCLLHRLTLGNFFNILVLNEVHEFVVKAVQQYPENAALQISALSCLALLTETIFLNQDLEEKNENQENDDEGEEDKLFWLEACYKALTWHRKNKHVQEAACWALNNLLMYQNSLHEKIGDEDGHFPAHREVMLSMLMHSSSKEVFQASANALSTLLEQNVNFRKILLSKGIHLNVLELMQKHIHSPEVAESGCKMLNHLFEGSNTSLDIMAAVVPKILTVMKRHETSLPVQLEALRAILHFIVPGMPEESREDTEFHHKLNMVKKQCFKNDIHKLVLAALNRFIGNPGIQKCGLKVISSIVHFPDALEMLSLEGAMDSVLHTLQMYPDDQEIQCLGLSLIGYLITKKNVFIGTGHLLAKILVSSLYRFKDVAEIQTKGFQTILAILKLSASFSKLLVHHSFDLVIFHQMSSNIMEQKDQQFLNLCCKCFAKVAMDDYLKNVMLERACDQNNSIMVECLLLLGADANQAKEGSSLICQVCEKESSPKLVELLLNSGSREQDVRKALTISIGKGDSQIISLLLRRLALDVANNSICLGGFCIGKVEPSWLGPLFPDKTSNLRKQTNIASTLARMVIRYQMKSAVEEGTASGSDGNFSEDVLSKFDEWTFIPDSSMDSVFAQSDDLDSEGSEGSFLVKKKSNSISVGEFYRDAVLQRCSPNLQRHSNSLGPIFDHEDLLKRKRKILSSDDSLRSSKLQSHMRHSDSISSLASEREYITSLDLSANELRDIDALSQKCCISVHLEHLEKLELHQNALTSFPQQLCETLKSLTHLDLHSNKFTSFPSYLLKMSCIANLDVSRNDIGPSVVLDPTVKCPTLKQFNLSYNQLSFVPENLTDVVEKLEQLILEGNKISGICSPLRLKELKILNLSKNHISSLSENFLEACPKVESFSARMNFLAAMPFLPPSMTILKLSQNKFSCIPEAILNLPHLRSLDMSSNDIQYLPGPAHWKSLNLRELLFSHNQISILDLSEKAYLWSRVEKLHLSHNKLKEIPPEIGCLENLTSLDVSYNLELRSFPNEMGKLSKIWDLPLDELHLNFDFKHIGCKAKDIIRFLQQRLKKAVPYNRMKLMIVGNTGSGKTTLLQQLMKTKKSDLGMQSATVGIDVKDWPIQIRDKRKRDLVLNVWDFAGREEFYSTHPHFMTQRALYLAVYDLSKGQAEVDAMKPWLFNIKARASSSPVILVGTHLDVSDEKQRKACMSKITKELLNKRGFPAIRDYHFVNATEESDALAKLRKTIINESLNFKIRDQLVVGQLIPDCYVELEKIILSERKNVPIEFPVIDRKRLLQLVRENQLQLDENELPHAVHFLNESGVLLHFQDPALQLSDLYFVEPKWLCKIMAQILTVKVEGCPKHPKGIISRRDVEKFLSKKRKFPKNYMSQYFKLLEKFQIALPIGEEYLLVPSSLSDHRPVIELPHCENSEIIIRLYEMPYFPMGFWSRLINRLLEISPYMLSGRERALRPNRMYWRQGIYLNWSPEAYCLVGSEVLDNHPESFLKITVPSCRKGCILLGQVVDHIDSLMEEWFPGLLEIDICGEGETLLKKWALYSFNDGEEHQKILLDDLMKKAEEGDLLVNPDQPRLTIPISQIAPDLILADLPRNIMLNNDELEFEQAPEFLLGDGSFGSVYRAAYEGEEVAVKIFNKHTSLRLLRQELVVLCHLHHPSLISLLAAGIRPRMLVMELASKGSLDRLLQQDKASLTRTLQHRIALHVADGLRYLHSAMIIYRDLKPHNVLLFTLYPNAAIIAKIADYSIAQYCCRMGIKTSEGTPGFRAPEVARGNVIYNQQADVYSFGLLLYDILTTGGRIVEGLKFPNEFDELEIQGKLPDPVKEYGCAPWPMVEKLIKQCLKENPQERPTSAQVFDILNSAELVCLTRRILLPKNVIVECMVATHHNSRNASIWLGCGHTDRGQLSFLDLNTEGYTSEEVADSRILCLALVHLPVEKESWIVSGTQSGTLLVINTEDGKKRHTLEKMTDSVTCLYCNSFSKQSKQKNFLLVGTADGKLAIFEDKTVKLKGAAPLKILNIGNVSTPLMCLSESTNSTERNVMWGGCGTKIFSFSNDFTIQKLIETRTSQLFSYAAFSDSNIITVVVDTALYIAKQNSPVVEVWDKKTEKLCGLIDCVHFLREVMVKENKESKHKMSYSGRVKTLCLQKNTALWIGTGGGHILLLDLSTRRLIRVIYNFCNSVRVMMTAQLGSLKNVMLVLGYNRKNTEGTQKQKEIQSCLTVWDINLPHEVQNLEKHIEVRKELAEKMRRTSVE
Excerpt: (§4) Strong inhibition of LRRK2 by compound 6 was also found.

[11] = test system: c-jun phosphorylation in H9C2 and N2a cells; test: Western blot analysis of c-jun phosphorylation; type: cell-based
Excerpt: as §1

[12] = test system: JNKs; test: Enzyme inhibition profiling, panel of 21 kinases; type: biochemical; conditions: 10 μM inhibitor concentration
[13] = test system: 96 kinases; test: Ambit binding screen; conditions: 10 μM
Protocol: To augment this we screened an additional 96 kinases at 10 μM in the Ambit binding screen to get a broader sense for the selectivity of this compound. […] Since minimal SAR optimizations have been made on this probe molecule it is believed that high selectivity for this class of inhibitors could easily be achieved by exploiting the bidentate binding character of this class.

[14] = biological target: LRRK2 (Homo sapiens, UniProt Q5S007); test: Enzyme inhibition profiling, panel of 21 kinases; type: biochemical; conditions: 10 μM inhibitor concentration
Sequence of LRRK2 (Q5S007 whole entry): as the sequence (Q5S007 whole entry G2019S) above, with S2019G counted along it

[15] = test system: SHSY5Y cells transfected with LRRK2:G2019S; test: LRRK2:G2019S-induced cell loss (cell viability); type: cell-based; conditions: Homo sapiens, SH-SY5Y; 10 μM compound; p<0.05
Excerpt: as §2, §3

[16] = biological target: wild-type LRRK2 (Homo sapiens, UniProt Q5S007); test: LRRK2 enzyme assay (titration); type: biochemical
Sequence of wild-type LRRK2 (Q5S007 whole entry): as the sequence (Q5S007 whole entry G2019S) above, with S2019G counted along it
Excerpt: as §4

[17] = Rattus norvegicus, H9c2, H9c2 cells

| SMILES | IC50 [2] | IC50 [3] | IC50 [4] [nM] | IC50 [5, 17] [nM] | other results |
| --- | --- | --- | --- | --- | --- |
| NC(=O)c1cccc(N)c1 [3-aminobenzamide] |  |  |  |  | infarct size (IS) [1]: 26±1.5 % of AAR |
| CC(=O)N[C@@H](CC(C)C)C(=O)N[C@@H](CC(N)=O)C(=O)N[C@@H](CC(C)C)C(=O)NCC(=O)NCC(=O)NCCCNC(=O)c1ccc(-c2n[nH]c3ccccc23)cc1 [Compound 1] (Ac-LNLGG-X2) | 37.8 ± 11.8 nM | 760 nM |  |  |  |
| CC(C)C[C@H](NC(=O)[C@H](CC(N)=O)NC(=O)[C@@H](N)CC(C)C)C(=O)NCC(=O)NCC(=O)NCCCNC(=O)c1ccc(-c2n[nH]c3ccccc23)cc1 [Compound 2] (H-LNLGG-X2) | 136 ± 35.9 nM | 624 nM |  |  |  |
| CC(=O)N[C@@H](CC(C)C)C(=O)N[C@@H](CC(N)=O)C(=O)N[C@@H](CC(C)C)C(=O)NCC(=O)NCCCCNC(=O)c1ccc(-c2n[nH]c3ccccc23)cc1 [Compound 3, (S)—N1-((S)-1-((2-((4-(4-(1H-indazol-3-yl)benzamido)butyl)amino)-2-oxoethyl)amino)-4-methyl-1-oxopentan-2-yl)-2-((S)-2-acetamido-4-methylpentanamido)succinamide] (Ac-LNLG-X1) | 157 ± 162 nM | 620 nM | 318 ± 11.9 |  |  |
| CC(C)CN(CC(=O)NCCCCCCNC(=O)c1ccc(-c2n[nH]c3ccccc23)cc1)C(=O)CNC(=O)c1ccc2c(c1)OCCO2 [Compound 4, N-(2-((2-((6-(4-(1H-indazol-3-yl)benzamido)hexyl)amino)-2-oxoethyl)(isobutyl)amino)-2-oxoethyl)-2,3-dihydrobenzo[b][1,4]dioxine-6-carboxamide] | 147 ± 51.6 nM | 907 nM | 685 ± 121 |  |  |
| CC(C)CN(CC(=O)NCCCCCCNC(=O)c1ccc(-c2n[nH]c3ccccc23)cc1)C(=O)CNC(=O)C1COc2ccccc2O1 (centres unmarked) [Compound 5, N-(2-((2-((6-(4-(1H-indazol-3-yl)benzamido)hexyl)amino)-2-oxoethyl)(isobutyl)amino)-2-oxoethyl)-2,3-dihydrobenzo[b][1,4]dioxine-2-carboxamide] | 63.4 ± 10.4 nM | 363 nM | 164 ± 21.7 | 37400 ± 22300 |  |
| COc1ccc2c(c1)CC(C(=O)NCC(=O)N(CC(=O)NCCCCCCNC(=O)c1ccc(-c3n[nH]c4ccccc34)cc1)CC(C)C)CO2 (centres unmarked) [Compound 6, N-(2-((2-((6-(4-(1H-indazol-3-yl)benzamido)hexyl)amino)-2-oxoethyl)(isobutyl)amino)-2-oxoethyl)-6-methoxychroman-3-carboxamide] | 12 nM and 11.6 nM | 336 nM and ~336 nM | 109 ± 6.1 | 2800 ± 500 | protection against decrease in MMP [6]: returned MMP dissipation to untreated levels; ROS levels [7]: reduced the ROS levels in a statistically significant manner; mechanism of inhibition versus ATP [8]: competitive inhibitor of ATP; concentration from which c-Jun phosphorylation began to be inhibited significantly ([5]; H9C2 cells): ~100 nM; inhibition at 10 µM ([9]; 10 μM inhibitor concentration): 50%; IC50 ([9]; inferred from 50% inhibition at 10 μM): ~10000 nM; IC50 [10]: 99 nM and ~100 nM; c-jun phosphorylation by Western blot [11]: inhibition of the c-jun phorphorylation; inhibition of JNKs [12]: ~100%; number of the 96 kinases with greater than 90% binding [13]: six; share of kinases inhibited [13]: ~5%; inhibition at 10 µM [14]: 94%; viability at 10 µM [15]: > 95%; IC50 ([16]; read-out: wild-type LRRK2 IC50): 118 nM and ~100 nM |
| COc1ccc2c(c1)CC(C(=O)N[C@@H](C)C(=O)N(CC(=O)NCCCCCCNC(=O)c1ccc(-c3n[nH]c4ccccc34)cc1)CC(C)C)CO2 (stereo partly drawn) [Compound 7, N—((S)-1-((2-((6-(4-(1H-indazol-3-yl)benzamido)hexyl)amino)-2-oxoethyl)(isobutyl)amino)-1-oxopropan-2-yl)-6-methoxychroman-3-carboxamide] | 127 ± 30.3 nM | 1050 nM | 154 ± 37.1 |  |  |
| COc1ccc2c(c1)CC(C(=O)NCC(=O)N(CC(=O)NCCCCCCNC(=O)c1ccc3[nH]ncc3c1)CC(C)C)CO2 (centres unmarked) [Compound 8, N-(6-(2-(N-isobutyl-2-(6-methoxychroman-3-carboxamido)acetamido)acetamido)hexyl)-1H-indazole-5-carboxamide] | 3150 nM |  |  |  |  |
| COc1ccc2c(c1)CC(C(=O)N(CC(=O)NCCCCNC(=O)c1ccc(-c3n[nH]c4ccccc34)cc1)CC(C)C)CO2 (centres unmarked) [Compound 9] | 246 ± 227 nM | 300 ± 187 nM |  | 80400 ± 41400 |  |
| CC(C)CN(CC(=O)NCCCCNC(=O)c1ccc(-c2n[nH]c3ccccc23)cc1)C(=O)c1ccc2c(c1)OCCO2 [Compound 10] | 65 nM | 363 ± 272 nM |  | ~1000 | IC50 ([5]; H9c2 cells): 1400 ± 340 nM; IC50 ([16]; LRRK2 form not stated, only hit in profiling against 18 kinases at 10 μM, read-out: LRRK2 IC50): 80 nM |
| CC(C)CN(CCCCCCNC(=O)c1ccc(-c2n[nH]c3ccccc23)cc1)C(=O)c1ccc2c(c1)OCCO2 [Compound 11] | 86 ± 37 nM | 781 ± 7 nM |  |  |  |
| CC(C)CN(CC(=O)NCCCCNC(=O)c1ccc(-c2n[nH]c3ccccc23)cc1)C(=O)CNC(=O)c1cccc(Cl)c1 [Compound 12] | 184 ± 38 nM | 520 ± 170 nM |  | 19800 ± 7800 |  |
| CC(C)CN(CC(=O)NCCCCNC(=O)c1ccc(-c2n[nH]c3ccccc23)cc1)CC(C)C [Compound 13] | 374 ± 227 nM | 1730 ± 635 nM |  | 9600 ± 3000 |  |

Reference: patent publication US9850276B2, “Bidentate-binding modulators of LRRK2 and JNK kinases” (THE SCRIPPS RESEARCH INSTITUTE, priority 2013, dated 2017)
